Reference: patent publication US6773895B2, “Method for identifying substances which positively influence inflammatory conditions of chronic inflammatory airway diseases” (Boehringer Ingelheim Pharma KG, priority 2000, dated 2004)
Values belong to the compound of their own block, whether it stands above or below them.

Experiments:
[1] = tested on: MonoMac6 cells; assay: Chemotaxis (migration) of MonoMac6 cells, 48-well chemotaxis chamber; format: cell-based, human; details: PMA-treated MonoMac6 cells, 4 hours of migration, fold increase in migrated cells over control medium
Procedure: Since an increased invasion of macrophages in peripheral airways of COPD patients can be observed, we tested the chemotactic ability of MonoMac6 cells which serve as a cell culture model for alveolar macrophages. Chemotaxis of MonoMac6 is determined by administering different ligands for FPRL-1.
MonoMac6 cells are treated with PMA for 24-30 hours in order to induce an activation state of the cells. Cells are harvested, washed twice with RPMI 1640 without supplements, and seeded at a density of 500,000 cells/well (24-well plate) in the presence of 10 nM PMA. After 24-30 hours cells are released from the substratum by repeated rinsing with a pipet, spun down, counted and adjusted to a density of 1×10^6 cells/ml of RPMI 1640 media without supplements but in the presence of 10 nM PMA. Chemotaxis is performed in a 48-well chemotaxis chamber (Neuroprobe Inc.) and polycarbonate membranes with a pore size of 8 μm (Neuroprobe Inc.). The lower wells of the chamber are filled with 28 μl of different concentrations of lipoxin A4, W-peptide, MCP-1 as a positive control, and RPMI 1640 media without supplements (including 10 nM PMA) as a negative control. The lower wells are covered with the polycarbonate membrane and the upper compartments of the chamber are filled with 50 μl of the cell suspension (50,000 cells per well). After 4 hours of migration at 37° C., 5% CO2 the cells on the upper part of the membrane are scraped off and the cells attached at the lower part of the membrane are stained with the Diff Quik Staining Set (Dade Behring) according to the manufacturer's protocol. Stained cells are counted in 6 to 8 high power fields at a magnification of 250× with a light microscope. The migration index represents the fold increase in the number of cells migrated in response to the chemoattractant over control medium.

[2] = tested on: TNFα; assay: Expression of TNFα in MonoMac 6 cells after stimulation with FPRL-1 ligands (TaqMan); details: 200 nM
Procedure: (§1) In order to examine the effects of ligands for FPRL-1, MonoMac6 cells are seeded at a density of 250,000 cells/ml in 24-well plates (with 2 ml per well), grown for 24 hours at 37° C., 5% CO2 in a humidified atmosphere before stimulation with 200 nM lipoxin A4 (Biomol), W-peptide (1 μM) (synthesized by Metabion, Martinsried), and LPS (Sigma) as a positive control. Cells are harvested at different time points, and total RNA is isolated as described above using the Qiagen RNeasy Total RNA Isolation Kit (Qiagen).
(§2) The RNA is used for Taqman analysis in order to monitor the expression of inflammatory markers like TNFα, IL-8, and MMP-12.

[3] = tested on: neutrophils; details: cited from earlier work
[4] = tested on: monocytes; details: cited from earlier work
[5] = tested on: human bronchi; details: cited from earlier work
[6] = tested on: IL-8; assay: Expression of IL-8 in MonoMac 6 cells after stimulation with FPRL-1 ligands (TaqMan); details: 200 nM
Procedure: as §1, §2

[7] = tested on: MMP-12; assay: Expression of MMP-12 in MonoMac 6 cells after stimulation with FPRL-1 ligands (TaqMan); details: 200 nM
Procedure: as §1, §2

[8] = tested on: FPRL-1; assay: Expression of FPRL-1 in MonoMac6 cells after stimulation (TaqMan analysis); format: cell-based, human; details: 10 nM PMA
Procedure: MonoMac6 cells are cultivated in 24-well plates in RPMI 1640 media, supplemented with 10% FCS (low endotoxin), 2 mM glutamine, 1× non-essential amino acids, 200 U/ml penicillin, 200 μg/ml streptomycin, and 5 ml OPI media supplement (Sigma). Cells are grown to a density of 600,000 cells per well (2 ml media) and stimulated with 10 nM PMA (phorbol 12-myristate 13-acetate) (Sigma), or 20 ng/ml LPS (lipopolysaccharides from Salmonella minnesota Re595) (Sigma). For smoke exposure, cells are incubated in media enriched with smoke for 10 minutes at 37° C., 5% CO2 at a density of 1×10^6 cells/ml. Enrichment of RPMI 1640 media with smoke is performed with the smoke of two cigarettes. The smoke of the cigarettes is pulled into a 50 ml syringe (about 20 volumes of a 50-ml syringe per cigarette) and then perfused into 100 ml of RPMI 1640 media without supplements. Afterwards, the pH of the smoke-enriched media is adjusted to 7.4 and the media is sterilized through a 0.2 μm filter before use. After the exposure with smoke cells are washed at least twice with RPMI 1640 in order to remove residual smoke particles. Then cells are seeded in 24-well plates with 400,000-600,000 cells per well filled with 2 ml of fresh RPMI 1640 media including the supplements mentioned above.
Both cell types are cultivated at 37° C., 5% CO2 in a humidified atmosphere and cells are harvested at various time points in order to monitor time-dependent effects. Cells are spun down and washed with PBS, resuspended in 400 μl of RLT buffer (Qiagen RNeasy Total RNA Isolation Kit) with 143 mM β-mercaptoethanol, the DNA is sheared with a 20 g needle for at least 5 times and stored at −70° C.
Total RNAs are isolated with the Qiagen RNeasy Total RNA Isolation Kit (Qiagen) according to the manufacturer's protocol. Purified RNA is digested with RNase-free DNase (Qiagen) and used for TaqMan analysis.
Taqman analysis is used to determine mRNA-levels for FPRL-1 in cell lines after treatment with and without various stimuli at different time points. Total RNA isolated from U937 cells that were treated for 3 days with […] is used in order to optimize reaction conditions for determining the mRNA-levels of FPRL-1 and setting standard curves for FPRL-1 and GAPDH (glyceraldehyde-3-phosphate dehydrogenase) as a housekeeping gene. Quantification of FPRL-1 is done with the following primers: Forward primer (rhHM63 668FP, SEQ ID NO:22), Reverse primer (hHM63 525(+)RP, SEQ ID NO:23) and TaqMan probe (rhHM63 629(−)TP, SEQ ID NO:24) labeled with reporter dye FAM at the 5′ end and quencher dye TAMRA at the 3′ end. The mRNA-levels for GAPDH are determined with a predeveloped kit for GAPDH “TaqMan GAPDH Control Reagents” (P/N 402869) from PE Applied Biosystems. The GAPDH probe is labeled with JOE as the reporter dye and TAMRA as the quencher dye. RT-PCR reactions are performed with the “TaqMan EZ RT-PCR Core Reagents” (P/N N808-0236) kit from Perkin Elmer. Standard curves for FPRL-1 and GAPDH are performed with increasing concentrations of RNA from U937 cells treated with 1 μM retinoic acid ranging from 0, 5, 10, 25, 50 to 100 ng per assay. Reaction mixes contain 1× TaqMan EZ-buffer, 3 mM Mn(Oac)2, 300 μM dATP, dCTP, dGTP, and 600 μM dUTP, 2.5 U rTth DNA polymerase, 0.25 U AmpErase UNG in a total volume of 25 μl. For analysis of FPRL-1 reaction mixes include 300 nM of rhHM63 668(−)FP and hHM63 525(+)RP and 100 nM of rhHM63 629(−)TP. The primer concentrations for determining GAPDH levels are 200 nM for each primer and 100 nM for the Taqman probe. In order to determine mRNA levels for FPRL-1 and GAPDH in human subjects and cell lines, 16 to 50 ng RNA per reaction are used. All samples are run in triplicate. The reactions are performed with “MicroAmp Optical 96-well reaction plates” sealed with “MicroAmp Optical Caps” (PE Applied Biosystems) in an ABI PRISM 7700 Sequence Detection System (PE Applied Biosystems). […]

Expression of TNFα, Fold Induction ([2]; t 0 h): 1.00 fold
Expression of TNFα, Fold Induction ([2]; t 3 h): 2.43 fold
Expression of IL-8, Fold Induction ([6]; t 0 h): 1.00 fold
Expression of IL-8, Fold Induction ([6]; t 3 h): 1.99 fold
Expression of MMP-12, Fold Induction ([7]; t 0 h): 1.00 fold
Expression of MMP-12, Fold Induction ([7]; t 3 h): 1.42 fold
Compound: CCCCC[C@H](O)/C=C/C=C\C=C\C=C\[C@@H](O)[C@@H](O)CCCC(=O)O [Lipoxin A4, lipoxin A4]
Migration Index ([1]; 10 nM): 0.86
Migration Index ([1]; 100 nM): 1.31
Migration Index ([1]; 1 μM): 1.68
chemotaxis and adhesion in neutrophils [3]: inhibits
transmigration through epithelial cells [3]: downregulates
chemotaxis, adherence and calcium release in monocytes [4]: stimulates
contraction of human bronchi [5]: dose-dependent contraction

Compound: CCCCCCCCCCCCCC(=O)O[C@@H]1[C@@H](C)[C@@]2(O)[C@@H](C=C(CO)C[C@]3(O)C(=O)C(C)=C[C@@H]23)[C@@H]2C(C)(C)[C@]12OC(C)=O [PMA, phorbol 12-myristate 13-acetate]
ng FPRL-1 mRNA/ ng GAPDH mRNA ([8]; t 0 h): 0.00 ng FPRL-1 mRNA/ ng GAPDH mRNA
ng FPRL-1 mRNA/ ng GAPDH mRNA ([8]; t 1 h): 0.00 ng FPRL-1 mRNA/ ng GAPDH mRNA
ng FPRL-1 mRNA/ ng GAPDH mRNA ([8]; t 3 h): 0.00 ng FPRL-1 mRNA/ ng GAPDH mRNA
ng FPRL-1 mRNA/ ng GAPDH mRNA ([8]; t 12 h): 0.00 ng FPRL-1 mRNA/ ng GAPDH mRNA
ng FPRL-1 mRNA/ ng GAPDH mRNA ([8]; t 24 h): 0.00 ng FPRL-1 mRNA/ ng GAPDH mRNA
ng FPRL-1 mRNA/ ng GAPDH mRNA ([8]; t 48 h): 0.43 ng FPRL-1 mRNA/ ng GAPDH mRNA
ng FPRL-1 mRNA/ ng GAPDH mRNA ([8]; t 72 h): 0.01 ng FPRL-1 mRNA/ ng GAPDH mRNA

Compound: CSCC[C@H](NC(=O)[C@H](Cc1ccc(O)cc1)NC(=O)[C@H](CCCCN)NC(=O)[C@@H](N)Cc1c[nH]c2ccccc12)C(=O)N[C@H](C(=O)N[C@H](CCSC)C(N)=O)C(C)C [W-peptide, W-K-Y-M-V-m]
Migration Index ([1]; 10 nM): 0.95
Migration Index ([1]; 100 nM): 1.23
Migration Index ([1]; 1 μM): 2.46

Compound: monocyte chemotactic protein 1 [MCP-1]
Migration Index ([1]; 20 ng/ml): 2.59
